Measured values as given in ChEMBL document CHEMBL1212714, “Dentigerumycin: a bacterial mediator of an ant-fungus symbiosis” (2009).
≈ marks a conversion by molar mass, not a printed value. Calls of active or inactive are those of the source. The rule behind the calls is not given here.

Assays:
[1] = tested on: ant fungal cultivar CC011120-4 (mutualistic fungus); assay: Antifungal activity against ant fungal cultivar CC011120-4 assessed as growth inhibition at 5 mg/ml by plate antifungal assay
Candida albicans [2] = assay: Antifungal activity against Candida albicans ATCC 10231 at 37degC after 48 hrs by liquid culture assay; assay type: functional; settings: ATCC 10231, 48 h
Candida albicans [3] = assay: Antifungal activity against wild type Candida albicans at 37degC after 48 hrs by liquid culture assay; assay type: functional
[4] = Antifungal activity against Escovopsis at 37degC after 48 hrs by liquid culture assay; assay type: functional
Candida albicans [5] = assay: Antifungal activity against Candida albicans ATCC 200955 at 37degC after 48 hrs by liquid culture assay; assay type: functional; settings: ATCC 200955, 48 h
Escovopsis = assay: Antifungal activity against Escovopsis CC011120-4 assessed as growth inhibition at 5 mg/ml by plate antifungal assay; assay type: functional

With `CCC[C@H]1CC[C@](O)([C@](C)(O)C(=O)N[C@@H]2C(=O)N3NCCC[C@@H]3C(=O)N(O)[C@@H](C)C(=O)N3NCCC[C@@H]3C(=O)N3NC[C@@H](O)C[C@H]3C(=O)N[C@@H](C)C(=O)O[C@H]2C(C)C)O[C@@H]1CC` [DENTIGERUMYCIN] the “growth inhibition (GI)” value [1] was “inactive”, the MIC (Candida albicans [2]) was 1.1 µM (≈ 0.97 µg/mL) and the MIC (Candida albicans [3]) was 1.1 µM (≈ 0.97 µg/mL). For the same molecule, the MIC [4] was 2.8 µM (≈ 2.47 µg/mL), the MIC (Candida albicans [5]) was 1.1 µM (≈ 0.97 µg/mL) and the “growth inhibition (GI)” value (Escovopsis) was “Active”.
